Results: patent publication US20220079876A1, “OCULAR IMPLANT CONTAINING A TYROSINE KINASE INHIBITOR” (Ocular Therapeutix, Inc., priority 2020, published 2022)
≈ marks a conversion by molar mass, not a printed value.

Experiments:
[1] = in vivo; cited from earlier work
[2] = Rugo et al. 2005; cited from earlier work
[3] = In vitro axitinib release under non-sink simulated physiological conditions; format: physicochemical; settings: pH 7.2, aqueous buffer, thermodynamic from solid; PBS from control implant release after 20 or 30 days at 37° C.
Method: Three exemplarily selected implant formulations were examined (Table 1). Implant variants #1 and 2 were examined using one implant, implant variant #3 using one and two implants (four conditions in total). All conditions were conducted in duplicate.
In vitro released and non-released axitinib was determined for each group without (control) and with daily release media sampling.
For control implant release, samples were placed in tubes. Five mL of PBS (pH 7.2) were added to each tube on day 0 and the tubes were covered with a lid. Samples were then placed in a 37° C. incubator and gently rocked for 20 (1× implant #3) or 30 days (implant #1 and #2, 2× implant #3). At the end of the test period, the PBS was removed (1 mL PBS was saved for testing). One mL of ethanol was added to the residual sample. Both PBS samples and residual samples were tested for axitinib amount released.
For daily implant release, samples were placed in tubes. Five mL of PBS were added to each tube on day 0 and the tubes were covered with a lid. Samples were then placed in a 37° C. incubator and rocked gently. After 24 hours, 4 mL of PBS were removed from each sample from which 1 mL was used for testing and the remaining 3 mL were disposed. Four mL of fresh PBS were added back into each tube. This process was repeated for 20 (1× implant #3) or 30 days (implant #1 and #2, 2× implant #3). […]

[4] = 1.25 mg intravitreal dose (Sinapis et al., 2011); cited from earlier work
[5] = test system: VEGF-induced vascular leakage; test: VEGF challenge, vascular leakage scored by fluorescein angiography; format: in vivo, Dutch belted rabbits; settings: rabbit; 1.25 mg Avastin intravitreal only (group 3)

## aflibercept: anti-VEGF agent, aflibercept injection by Regeneron
[1]
  t1/2 in the human eye: several days

## ranibizumab: anti-VEGF agent, ranibizumab injection by Genentech
[1]
  t1/2 in the human eye: several days

## CNC(=O)c1ccccc1Sc1ccc2c(/C=C/c3ccccn3)n[nH]c2c1 [axitinib, N-methyl-2-[3-((E)-2-pyridin-2-yl-vinyl)-1H-indazol-6-ylsulfanyl]-benzamide]
[2]
  Clearance half-life (t1/2): a few hours
[3]
  solubility: 0.24 to 0.4 µg/mL (≈ 0.621 to 1.03 µM)

## Avastin®: anti-VEGF therapeutic
[4]
  Half-life in rabbits: 158 h
[5]
  Duration of effect post injection: ≤ 3 months
  Vascular leakage after VEGF challenge, after 3 months: vascular leakage re-occurred
